This is an account of results in US11931362B2 (CIPLA LIMITED, priority 2019, dated 2024).

The experiment deals with Escherichia coli, Staphylococcus aureus, Pseudomonas aeruginosa, Candida albicans, and Aspergillus niger. Kind of experiment: Preservative efficacy test, overall outcome. The class given is cell-based. As to conditions: bacteria and fungi. As to the method: Preservative effectiveness tests are compendial-guided assays that determine efficacy for preservative systems in pharmaceutical preparations. In such assays, test formulations are challenged with standardized suspensions of indicator aerobic bacteria and molds and microorganism survival is monitored over a 28-day period. The efficacy of the preservative against various microorganisms was measured using a USP/EP preservative efficacy test. These tests were conducted on Memmert equipment. In the procedure, formulations were tested against the following microorganisms: Escherichia coli, Staphylococcus aureus, Pseudomonas aeruginosa, Candida albicans, and Aspergillus niger. The bacterial strains and fungi were inoculated at a total concentration of […]. Samples were incubated for 7 days at room temperature (25° C.), and the total bacterial and fungal counts were measured using a colony counter. The log reduction (LR) values for the bacterial and fungal counts were calculated as log (initial count/final count).

`OCc1ccccc1` [benzyl alcohol]: the “preservative efficacy test outcome” value is reported as “effective”.
